Entries after “also recorded” stand apart in the source; their conditions may differ. One block for each compound: values may come before it.
What was measured:
tyrosinase [1] = target: T1, tyrosinase (Agaricus bisporus, UniProt C7FF04); assay type: biochemical, mushroom
Target sequence in this assay (C7FF04 2-392): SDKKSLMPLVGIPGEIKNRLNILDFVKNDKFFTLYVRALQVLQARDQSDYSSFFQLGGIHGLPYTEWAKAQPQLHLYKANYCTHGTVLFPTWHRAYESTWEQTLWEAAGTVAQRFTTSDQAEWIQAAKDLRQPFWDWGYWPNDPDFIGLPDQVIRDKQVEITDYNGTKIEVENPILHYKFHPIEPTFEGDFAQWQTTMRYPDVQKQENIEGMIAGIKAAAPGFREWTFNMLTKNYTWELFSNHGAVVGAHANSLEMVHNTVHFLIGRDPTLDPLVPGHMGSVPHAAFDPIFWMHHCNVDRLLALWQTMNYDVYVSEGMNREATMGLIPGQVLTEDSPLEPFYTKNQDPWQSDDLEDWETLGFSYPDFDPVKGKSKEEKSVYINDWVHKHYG

tyrosinase [2] = target: T1, tyrosinase; settings: Lineweaver-Burk plots; Vmax decreased, Km unchanged
Target sequence in this assay (C7FF04 2-392): as above

fresh-cut apple slices = assay: Anti-browning experiment with fresh-cut apple slices; settings: apple slices dipped 5 min, stored at 4 °C; compared with kojic acid
Cell viability assay = assay type: cell-based; settings: human, HEK-293 cells
tyrosinase [3] = target: T1, tyrosinase; assay: ANS-binding fluorescence spectrum quenching; design: species or system mushroom; settings: 6j 0–59.41 μM
Target sequence in this assay (C7FF04 1-392): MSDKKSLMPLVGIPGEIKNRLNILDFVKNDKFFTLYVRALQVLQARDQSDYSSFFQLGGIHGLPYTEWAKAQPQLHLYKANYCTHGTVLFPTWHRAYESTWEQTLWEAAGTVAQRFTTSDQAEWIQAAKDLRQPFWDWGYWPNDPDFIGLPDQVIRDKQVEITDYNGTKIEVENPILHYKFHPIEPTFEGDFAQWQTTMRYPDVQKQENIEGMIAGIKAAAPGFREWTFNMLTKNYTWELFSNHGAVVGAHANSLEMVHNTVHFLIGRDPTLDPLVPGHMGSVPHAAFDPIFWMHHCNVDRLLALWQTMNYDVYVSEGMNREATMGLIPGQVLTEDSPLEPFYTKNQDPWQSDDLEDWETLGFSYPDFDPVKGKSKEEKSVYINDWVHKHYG

tyrosinase [4] = target: T1, tyrosinase; assay: Fluorescence spectrum quenching of tyrosinase; assay type: binding, mushroom
Target sequence in this assay (C7FF04 2-392): as the sequence (C7FF04 2-392) above

[5] = plot of Lg[(F0−F)/F] against Lg[Q]

Compound: COc1cc(C=O)cc(OC)c1OCc1cc(=O)c(O)co1 [6c]
Inhibitory activity against tyrosinase (in words) (tyrosinase [1]): relatively lower inhibitory activity

Compound: COc1cccc(C=O)c1OCc1cc(=O)c(O)co1 [6g]
Inhibitory activity against tyrosinase (in words) (tyrosinase [1]): relatively lower inhibitory activity

Compound: Cc1cc(C=O)cc(C)c1OCc1cc(=O)c(O)co1 [6h]
Inhibitory activity against tyrosinase (in words) (tyrosinase [1]): relatively lower inhibitory activity

Compound: CCOc1cccc(C=O)c1OCc1cc(=O)c(O)co1 [6i]
Inhibitory activity against tyrosinase (in words) (tyrosinase [1]): relatively lower inhibitory activity

Second part, led by results:

Inhibition type (tyrosinase [2]): noncompetitive inhibitor
Anti-tyrosinase activity relative to the positive control kojic acid (tyrosinase [1]; ratio of IC50 values): nine folds more active
ANS-binding fluorescence: maximum emission peak wavelength and intensity (tyrosinase [3]): did not present an obvious change
Type of quenching (tyrosinase [4]; Stern-Volmer analysis): static quenching
Ksv (Stern-Volmer quenching constant) (tyrosinase [4]; excitation 280 nm, 6j 4.99–24.79 μM): 7040 M⁻¹
Ka (binding constant) (tyrosinase [4]; [5]): 28900 M⁻¹
n (binding sites) (tyrosinase [4]; [5]): 1.24
Kq (biomolecular quenching constant) (tyrosinase [4]; τ0 10^−8 s): 7.04e+11 M⁻¹ s⁻¹
Compound: O=Cc1ccc(OCc2cc(=O)c(O)co2)cc1F [6j]
Anti-browning effect (L*, ΔE, visual assessment) (fresh-cut apple slices): could delay the enzymatic browning of fresh-cut apples; also recorded: stronger anti-browning effect than kojic acid
viability at 24 h, 1 µM (Cell viability assay): 97.1 ± 2.49%
viability at 24 h, 4 µM (Cell viability assay): 106 ± 8.83%
viability at 24 h, 16 µM (Cell viability assay): 102 ± 10.1%
viability at 24 h, 64 µM (Cell viability assay): 105 ± 7.27%
viability at 24 h, 256 µM (Cell viability assay): 88.6 ± 3.61%

Inhibitory activity against tyrosinase (in words) (tyrosinase [1]): relatively lower inhibitory activity
Compound: COc1cc(C=O)cc(Br)c1OCc1cc(=O)c(O)co1 [6k]
